Laboratory results as given in patent US11324680B2, “Topical compositions” (priority 2017, dated 2022).

System: Propionibacterium acnes
Experiment: Antimicrobial efficacy in analogy to challenge test NF EN ISO11930, protection against acne
Assay type: cell-based
Conditions: 24 h; for Log reduction: Propionibacterium acnes; for Propionibacterium acnes colony count: 22° C., initial contamination 310000 cfu/ml
Experimental: The antimicrobial efficacy is assessed in analogy to the regulatory challenge test method (NF EN ISO11930). Thus, solutions of the respective active(s) in ethanol are prepared and further dissolved in physiological serum with 0.85 wt.-% NaCl in the concentrations as outlined in table 1 under sterile conditions. The samples were solubilized in physiological serum supplemented with 1 wt.-% ethanol. A control was prepared under sterile condition based on a serum with 0.85 wt.-% NaCl and 1 wt.-% ethanol (C1). […] The wells are contaminated resulting in the initial contamination as outlined in table 1. After the contamination, each well was thoroughly mixed to ensure a homogeneous distribution of bacteria. Then each plate was incubated at 22° C. for 24 h. The counting of the (remaining) population is carried out 24 h after contamination.

Row | Compound | Log reduction (single active at 0.2 wt.-%) | Log reduction (single active at 0.3 wt.-%) | Propionibacterium acnes colony count (single active at 0.2 wt.-%) [cfu/ml] | Propionibacterium acnes colony count (single active at 0.3 wt.-%) [cfu/ml] | Log reduction (single active at 0.1 wt.-%) | Propionibacterium acnes colony count (single active at 0.1 wt.-%) [cfu/ml]
1 | CCCCCCCC(=O)OCC(O)CO (centres unmarked) [glyceryl caprylate, Glyceryl caprylate] | 3 | 4.5 | 260 | 10 |  | 
2 | O=C(CO)[C@H](O)CO (racemic) [erythrulose] |  | 3.5 |  | 100 | 2 | 3300
